A short description of data set [1]: Aqueous solubility in the presence of various bases (Example 1). The format is physicochemical. From the text:
(§1) The resulting mixtures were examined for both solubility and stability with the results being analyzed high-performance liquid chromatography (HPLC) with UV and mass spectroscopy detection.

Data set [2] can be described thus: Observation for toxicity and mortality in the PK study. The format is in vivo. Here is the method: Mice were weighed within 72 hours of receipt and again on Study Day −1. Mice were observed once daily prior to day 0, and at least twice daily beginning on day 0 for 24 hours post-dose for morbidity and moribundity.
The nature of data set [3]: Plasma stability in mouse plasma. The format is in vitro ADME. Here is the method: An hour-by-hour analysis was then conducted, showing a marked decrease at ambient conditions (see Table 4). […] It should be noted that the time measurement for ambient is listed in hours (Table 4) compared with the time for the −20° C., which was measured in days (Table 5).
Data set [4] in a line: Stability in acetonitrile extract (post sample preparation). As to conditions: 6 days. Format: physicochemical. Here is the method:
In particular, once the centrifugation was performed on the blood samples to provide the plasma samples for analysis, extraction into acetonitrile was done as quickly as possible (e.g., <1 hour).

A short description of data set [5]: Body weight and toxicity during the chemoprevention study. Format: in vivo, female MMTV/Neu mice. To be noted: gavage 5 times/week, 500, 250, and 100 mg/kg BW/day, throughout the experiment.
Data set [6] deals with DMBA-induced mammary cancer. The data set can be described thus: Chemoprevention study of DMBA-induced mammary cancer.
Text: The negative control group received vehicle (purified water) only. In order to accelerate tumor formation, the mice were also given 7,12-dimethylbenz[a]anthracene (DMBA) by gavage 1 time/week for 4 weeks beginning at 57 days of age. The study was terminated 4 months after DMBA exposure. During the treatment period, the body weights of the mice and the appearance of palpable mammary tumors were monitored on a weekly and twice-weekly basis, respectively.
The next data set has as its system Ki67 expression. The data set can be described thus: Ki67 expression in normal mammary gland, immunohistochemical analysis. As to conditions: two weeks of treatment.
Data set [7] can be described thus: Stability in water in the presence of various bases, HPLC with UV and MS detection (Example 1). The format is physicochemical.
Text: as §1

The conditions of data set [8]: cited from earlier work.

Description for Ki67 expression: Ki67 expression was assessed by immunohistochemical analysis of the normal ductal epithelium. Stained sections were scanned and quantitated using automated image analysis software.

As for `Cc1ccc(S(=O)(=O)OCC(=O)Nc2ccc(C(=O)O)c(O)c2)cc1` [Compound 1], in data set [1] (water), the solubility in water entry is on record as “highly soluble in water”. For the same compound, the “signs of toxicity post-dose” value in data set [2] (groups A-H: IV 50 mg/kg, PO 500, 250, 125 mg/kg, observed 24 hours post-dose) is on record as “None of the mice in groups A-H demonstrated signs of toxicity”. For the same compound, in data set [2] (oral or IV administration, any of the doses administered), the mortality entry is on record as “no mortality”. Also, in data set [3] (ambient conditions, 0 hours), the recovery at 0 h was 88.6%. This compound had a recovery at 1 h in data set [3] (ambient conditions, 1 hour) of 61.2%. Also, the recovery at 2 h in data set [3] (ambient conditions, 2 hours) was 52.6%. The recovery at 3 h in data set [3] (ambient conditions, 3 hours) was 28.7%. The recovery at 5 h in data set [3] (ambient conditions, 5 hours) stood at 21.3%. In data set [3] (ambient conditions, 6 hours), this compound gave a recovery at 6 h of 15.8%. Further, the “plasma stability, daily assessment” value in data set [3] (samples assessed daily, no free acid observed after 1 day) was “stability was short”. For the same compound, the recovery at 0 days in data set [3] (−20° C., 0 days) was found to be 94.5%. In data set [3] (−20° C., 1 day), this compound registered a recovery at 1 days of 76.6%. For the same compound, the recovery at 2 days in data set [3] (−20° C., 2 days) turned out to be 65.7%. The same compound showed a recovery at 3 days in [3] (−20° C., 3 days) of 58%. Also, the recovery at 6 days in data set [3] (−20° C., 6 days) came to 46.6%. Besides, in [4], the “stability in an acetonitrile extract” value is recorded as “little/no degradation”. Besides, the “weight loss or toxicity” value in data set [5] is on record as “No weight loss or toxicity was observed”. For the same compound, the “effect in preventing breast cancer” value in data set [6] (500 mg/kg BW/day by gavage) is listed as “greatest effect”. Also, the “onset of DMBA-induced breast cancer” value in [6] (all doses tested (500, 250, and 100 mg/kg BW/day by gavage)) is recorded as “able to delay the onset”. Besides, the “incidence, multiplicity, and weights of mammary tumors compared to the vehicle-only control” value in data set [6] (gavage 5 times/week, 500, 250, and 100 mg/kg BW/day, DMBA-accelerated, 4 months) is listed as “dose-dependent decrease”. Moreover, the results for the “inhibition of Ki67” value in the data set with Ki67 expression (250 mg/kg BW/day) and with Ki67 expression (500 mg/kg BW/day) were 85% and 83%, respectively.

As for `Cc1ccc(S(=O)(=O)OCC(=O)Nc2ccc(C(=O)O)c(O)c2)cc1` [NSC-74859], the solubility in data set [1] (water with 1.1 molar equivalents of TRIZMA base, aqueous buffer, thermodynamic from solid, with 1.1 molar equivalents TRIZMA (2-amino-2-(hydroxymethyl)-1,3-propanediol), pH 7 water) was ~60 mg/mL. Besides, the aqueous solubility entry in data set [1] (with 1.1 molar equivalents of base in water, all bases examined (LiOH, NaOH, K2CO3, NaHCO3, TRIZMA)) is “good aqueous solubility”. In addition, the “degradation (loss of the tosylate group)” value in data set [7] (in stronger bases, such as sodium hydroxide, in water) is recorded as “Degradation was much more pronounced”. Besides, in data set [7] (with TRIZMA, in water at room temperature, initial analysis), the “time the product remained stable” value is ~8 h. Also, the “solubility in water and ethanol” value in [8] was “poorly soluble in water and ethanol”.

One may read the solubility as the dissolved amount per volume that the medium holds.

The values above are taken from patent US10913709B2, “STAT3 inhibitor formulation” (priority 2017, dated 2021).
